Reference: patent US7601511B2, “Biotin-facilitated transport in gram negative bacteria” (priority 2003, dated 2009)

What was measured:
S. aureus = test: Effect of added biotin on uptake of biotinylated peptide (competition); format: cell-based, Staphylococcus aureus; conditions: 31 amino acid peptide; equimolar or 10× equimolar amounts, added five minutes before peptide
Experimental: (§1) Uptake assays. Minimal 37° C. overnights were diluted into fresh minimal media and incubated at 37° C. until they reached an OD550 of 0.5. The 10 and 31 amino acid randomized biotinylated peptides were added to the media at a concentration of 1 μg per mL of culture. After addition of the peptide to the culture, 1 mL aliquots were extracted at time intervals up to an hour, washed twice of extracellular peptide using fresh minimal media, then boiled with SDS-PAGE gradient sample buffer. Samples were run on a 10-16% tricine gradient gel (Schägger et al., 1987, Anal. Biochem. 166:368-379) and transferred to nitrocellulose membranes. The resulting Western blots were treated with NeutrAvidin Horseradish Peroxidase Conjugate and SuperSignal West Dura Extended Duration Chemiluminescent Substrate. The membranes were incubated for 5-10 minutes then exposed to X-ray film for 1-10 minutes. Bands on the film were quantified using the AlphaEase 5.5 Densitometry ProGram from Alpha Innotech.
(§2) One mL samples were extracted 10 minutes after the addition of the peptide and analyzed by SDS PAGE as previously described.

E. coli MG1655 = test: Effect of added compounds on uptake of biotinylated peptide (competition / block); format: cell-based, Escherichia coli; conditions: 31 amino acid peptide, sampled after 10 minutes
Experimental: as §1, §2

[1] = equimolar or 10× equimolar amounts, added five minutes before peptide

| Compound | effect on uptake of biotinylated peptide in S. aureus (S. aureus) | effect on uptake of biotinylated peptide in E. coli (E. coli MG1655; [1]) | effect on uptake of biotinylated peptide in E. coli (E. coli MG1655; CCCP 50 μM added prior to peptide) |
| --- | --- | --- | --- |
| O=C(O)CCCC[C@@H]1SC[C@@H]2NC(=O)N[C@@H]21 [biotin] | no effect | could be blocked |  |
| Cc1ncc(C[n+]2csc(CCO)c2C)c(N)n1 [thiamine] |  | no effect |  |
| N#CC(C#N)=NNc1cccc(Cl)c1 [CCCP, carbonyl cyanide m-chlorophenylhydrazone] |  |  | uptake is blocked |
| bovine serum albumin: similarly sized protein used as control |  | no effect |  |
| avidin: protein known to tightly bind biotin, purchased from Sigma |  | could competitively inhibit |  |
